The Ki is the equilibrium dissociation constant of an inhibitor or competing ligand from its target. Read a high Ki as lower affinity.

This is an account of results in US9296741B2, “Bromodomain inhibitors” (priority 2012, dated 2016).

SMILES strings stand for the structures. Read-outs that look alike come from different tables or passages of the source. A value given as a limit tells only on which side of the number the result lay.

Data set [1] has as its system OPM-2 human multiple myeloma xenograft tumors. Kind of data set: animal or person. The conditions noted are these: Mus musculus; for change in vivo at 3 mg/kg / inhibition in vivo at 3 mg/kg: 3 mg/kg/day; for change in vivo at 1 mg/kg / inhibition in vivo at 1 mg/kg: 1 mg/kg/day.
A short description of data set [2]: Human liver microsome stability assay. Format: in vitro ADME. The conditions noted are these: both sexes, human, microsomes, pH 7.4. In general terms: Liver microsomes are a subcellular fraction often used to study metabolism.
Data set [3] addresses human BRD4 first bromodomain (BDI_K57-E168) (Homo sapiens (Human), UniProt O60885). As to the kind of experiment: TR-FRET bromodomain binding assay, BRD4 first bromodomain. (In general: Time-resolved FRET reads energy transfer from a long-lived donor to a nearby acceptor.)
In data set [4] the target is human BRD4 second bromodomain (BDII_E352-M457) (Homo sapiens (Human), UniProt O60885). Kind of data set: TR-FRET bromodomain binding assay, BRD4 second bromodomain.
The test system of data set [5] is breast cancer cell line MX-1. Kind of data set: MX-1 cell line proliferation assay. The data set is classed as cell-based, human. The conditions noted are these: Homo sapiens, MX1, 72 h; MX-1 cells, 3-day proliferation, Cell Titer Glo; read-out: Cellular proliferation: EC50. Background: Cellular ATP, detected with luciferase, serves as a proxy for viable cell number.

Data set [6] is described as follows: Rat liver microsome stability assay. The data set is classed as in vitro ADME. The note with it: rat liver microsomes (male Sprague-Dawley), 0.5 μM test compound, 0.25 mg/mL microsomal protein, pH 7.4, 37° C.; read-out: Stability in rat liver microsomes (t1/2 in minutes).
The nature of data set [7]: Mouse liver microsome stability assay. The data set is classed as in vitro ADME. The note with it: male, CD1, mouse, microsomes, pH 7.4.
Data set [8] deals with LPS induced IL-6 production. Kind of data set: LPS (lipopolysaccharide) induced IL-6 production mouse assay. The data set is classed as in vivo. The conditions noted are these: 1 h before LPS, serum IL-6 2 h after LPS; for inhibition in vivo at 3 mg/kg: Mus musculus, read-out: Inhibition of LPS induced IL-6 production in Mice, % inhibition at 3 mg/kg, 3 mg/kg oral.
Where [9] appears, read: OPM-2, po, read-out: % TGD (tumor growth delay), OPM-2, PO, QDx21, vehicle A.
Where [10] appears, read: OPM-2, po, read-out: % TGI (tumor growth inhibition), OPM-2, PO, QDx21, vehicle A.

`CNS(=O)(=O)c1ccc(OCC2CC2)c(-c2cn(C)c(=O)c3[nH]ccc23)c1` [Example 250, 4-(cyclopropylmethoxy)-N-methyl-3-(6-methyl-7-oxo-6,7-dihydro-1H-pyrrolo[2,3-c]pyridin-4-yl)benzenesulfonamide]: the change in vivo at 3 mg/kg in data set [1] (setting [9]) was 29%. Moreover, in data set [1] (setting [10]), the inhibition in vivo at 3 mg/kg came out at 42%. Also, the half-life at 0.5 μM in data set [2] worked out at 56 min; in data set [6] it was 36 min; in data set [7], 37 min. Further, the inhibition constant Ki in data set [3] and in data set [4] was 1.5 nM in each case. The EC50 in data set [5] was found to be 18 nM.
For `CC(C)C[C@H](NC(=O)[C@H](Cc1ccccc1)NC(=O)c1cnccn1)B(O)O` [Bortezomib], the change in vivo at 1 mg/kg in data set [1] (OPM-2, iv, read-out: % TGD (tumor growth delay), OPM-2, IV, Q4Dx3, vehicle B) is 93%. The inhibition in vivo at 1 mg/kg in data set [1] (OPM-2, iv, read-out: % TGI (tumor growth inhibition), OPM-2, IV, Q4Dx3, vehicle B) stood at 80%.
On to `CCS(=O)(=O)c1ccc(OC2CCC(F)(F)CC2)c(-c2cn(C)c(=O)c3[nH]ccc23)c1` [Example 169, 4-{2-[(4,4-difluorocyclohexyl)oxy]-5-(ethylsulfonyl)phenyl}-6-methyl-1,6-dihydro-7H-pyrrolo[2,3-c]pyridin-7-one], for which the change in vivo at 3 mg/kg in data set [1] (setting [9]) was determined as 77%. The inhibition in vivo at 3 mg/kg in data set [1] (setting [10]) amounted to 69%; in data set [8] it was 67%. Moreover, the half-life at 0.5 μM in data set [2] was determined as 86 min; in data set [6], 34 min; in data set [7], 38 min. For the same molecule, the Ki was 0.88 nM in data set [3] and 0.86 nM in data set [4]. In addition, in data set [5], the EC50 is 5.3 nM.
With `Cn1cc(-c2cc(CS(C)(=O)=O)cnc2Oc2ccc(F)cc2F)c2cc[nH]c2c1=O` [Example 311, 4-{2-(2,4-difluorophenoxy)-5-[(methylsulfonyl)methyl]pyridin-3-yl}-6-methyl-1,6-dihydro-7H-pyrrolo[2,3-c]pyridin-7-one], in data set [1] (OPM-2, po, read-out: % TGD (tumor growth delay), OPM-2, 1.25 mg/kg/day, PO, QDx21, vehicle A), the change in vivo at 1.25 mg/kg is 90%. For the same molecule, the inhibition in vivo at 1.25 mg/kg in data set [1] (OPM-2, po, read-out: % TGI (tumor growth inhibition), OPM-2, 1.25 mg/kg/day, PO, QDx21, vehicle A) was 60%. Besides, the half-life at 0.5 μM is more than 120 min in data set [2], 83 min in data set [6] and more than 120 min in data set [7]. The values for the Ki in data set [3] and in data set [4] were 14.8 nM and 4.5 nM, respectively. Besides, the EC50 in data set [5] came out at 22.4 nM. Besides, the inhibition in vivo at 3 mg/kg in data set [8] was found to be 74%.
As for `CCS(=O)(=O)c1ccc(NCC2CC2)c(-c2cn(C)c(=O)c3[nH]ccc23)c1` [Example 200, 4-{2-[(cyclopropylmethyl)amino]-5-(ethylsulfonyl)phenyl}-6-methyl-1,6-dihydro-7H-pyrrolo[2,3-c]pyridin-7-one], in data set [1] (setting [9]), the change in vivo at 1 mg/kg stood at 44%. Besides, the change in vivo at 3 mg/kg in data set [1] (setting [9]) came out at 82%. Further, in data set [1] (setting [10]), the inhibition in vivo at 1 mg/kg amounted to 50%. The inhibition in vivo at 3 mg/kg in data set [1] (setting [10]) is 80%; in data set [8], 75%. Moreover, the half-life at 0.5 μM was more than 120 min in data set [2], 31 min in data set [6] and more than 120 min in data set [7]. The Ki in data set [3] is 0.86 nM; in data set [4], 1.1 nM. Further, the EC50 in data set [5] was 11.3 nM.
Take `Cn1cc(-c2cc(S(C)(=O)=O)ccc2OCC2CC2)c2cc[nH]c2c1=O` [Example 158, 4-[2-(cyclopropylmethoxy)-5-(methylsulfonyl)phenyl]-6-methyl-1,6-dihydro-7H-pyrrolo[2,3-c]pyridin-7-one]: the change in vivo at 6 mg/kg in data set [1] (OPM-2, po, read-out: % TGD (tumor growth delay), OPM-2, 6 mg/kg/day, PO, QDx21, vehicle A) was 34%. In addition, in data set [1] (OPM-2, po, read-out: % TGD (tumor growth delay), OPM-2, 20 mg/kg/day, PO, QDx21, vehicle A), the change in vivo at 20 mg/kg is 72%. Further, in data set [1] (OPM-2, po, read-out: % TGI (tumor growth inhibition), OPM-2, 6 mg/kg/day, PO, QDx21, vehicle A), the inhibition in vivo at 6 mg/kg worked out at 53%. Further, the inhibition in vivo at 20 mg/kg in data set [1] (OPM-2, po, read-out: % TGI (tumor growth inhibition), OPM-2, 20 mg/kg/day, PO, QDx21, vehicle A) is 78%. In addition, the half-life at 0.5 μM in data set [2], in data set [6] and in data set [7] was more than 120 min in each case. Besides, the figures for the inhibition constant (Ki) in data set [3] and in data set [4] were 4.1 nM and 9.7 nM, respectively. Moreover, the EC50 in data set [5] was found to be 24.3 nM.
For the molecule `Cn1cc(-c2cc(S(N)(=O)=O)ccc2Oc2ccc(F)cc2F)c2cc[nH]c2c1=O` [Example 146, 4-(2,4-difluorophenoxy)-3-(6-methyl-7-oxo-6,7-dihydro-1H-pyrrolo[2,3-c]pyridin-4-yl)benzenesulfonamide], the change in vivo at 1 mg/kg in data set [1] (setting [9]) stood at 35%. The change in vivo at 3 mg/kg in data set [1] (setting [9]) was 78%. In addition, the inhibition in vivo at 1 mg/kg in data set [1] (setting [10]) came out at 39%. In addition, the inhibition in vivo at 3 mg/kg in data set [1] (setting [10]) amounted to 76%; in data set [8] it was 80%. In addition, the values for the half-life at 0.5 μM in data set [2], in data set [6] and in data set [7] were more than 120 min, 52 min and 55 min, respectively. The Ki in data set [3] amounted to 7.5 nM; in data set [4], 1.9 nM. In addition, the EC50 in data set [5] is 60.9 nM.
Consider `Cn1cc(-c2cc(S(N)(=O)=O)cnc2OCC2CC2)c2cc[nH]c2c1=O` [Example 207, 6-(cyclopropylmethoxy)-5-(6-methyl-7-oxo-6,7-dihydro-1H-pyrrolo[2,3-c]pyridin-4-yl)pyridine-3-sulfonamide], for which the half-life at 0.5 μM was 102 min in data set [2], 78 min in data set [6] and 100 min in data set [7]. Moreover, the figures for the Ki in data set [3] and in data set [4] were 3.1 nM and 1.8 nM, respectively. The EC50 in data set [5] came out at 25.1 nM. In addition, the inhibition in vivo at 3 mg/kg in data set [8] stood at 62%.
As for `Cn1cc(-c2cc(S(N)(=O)=O)cnc2Oc2ccc(F)cc2F)c2cc[nH]c2c1=O` [Example 242, 6-(2,4-difluorophenoxy)-5-(6-methyl-7-oxo-6,7-dihydro-1H-pyrrolo[2,3-c]pyridin-4-yl)pyridine-3-sulfonamide], the half-life at 0.5 μM in data set [2] is more than 120 min; in data set [6] it was 86 min; in data set [7], more than 120 min. Moreover, the Ki in data set [3] is 36.5 nM; in data set [4], 5.8 nM. In data set [5], the EC50 amounted to 289 nM. Besides, the inhibition in vivo at 3 mg/kg in data set [8] was determined as 46%.
`Cn1cc(-c2cc(NS(C)(=O)=O)ccc2Oc2ccc(F)c(F)c2)c2cc[nH]c2c1=O` [Example 48, N-[4-(3,4-difluorophenoxy)-3-(6-methyl-7-oxo-6,7-dihydro-1H-pyrrolo[2,3-c]pyridin-4-yl)phenyl]methanesulfonamide]: the half-life at 0.5 μM in data set [2] came out at 37 min; in data set [6], 32 min; in data set [7], 35 min. Also, the figures for the Ki in data set [3] and in data set [4] were 2.3 nM and 3.3 nM, respectively. For the same molecule, the EC50 in data set [5] amounted to 23.5 nM. Further, in data set [8], the inhibition in vivo at 3 mg/kg amounted to 62%.
In the case of `CN(C)S(=O)(=O)c1ccc(OCC2CC2)c(-c2cn(C)c(=O)c3[nH]ccc23)c1` [Example 273, 4-(cyclopropylmethoxy)-N,N-dimethyl-3-(6-methyl-7-oxo-6,7-dihydro-1H-pyrrolo[2,3-c]pyridin-4-yl)benzenesulfonamide], the half-life at 0.5 μM in data set [2] was determined as 9 min; in data set [6] it was 12 min; in data set [7] it was 8 min. Further, the Ki in data set [3] came to 1.2 nM; in data set [4], 1.3 nM. Moreover, the EC50 in data set [5] came out at 9 nM. The inhibition in vivo at 3 mg/kg in data set [8] turned out to be 47%.
With `Cn1nc(-c2cc(NS(C)(=O)=O)ccc2Oc2ccccc2)c2cc[nH]c2c1=O` [Example 80, N-[3-(6-methyl-7-oxo-6,7-dihydro-1H-pyrrolo[2,3-d]pyridazin-4-yl)-4-phenoxyphenyl]methanesulfonamide], the half-life at 0.5 μM amounted to 62 min in data set [2], 2 min in data set [6] and 31 min in data set [7]. Moreover, the results for the inhibition constant (Ki) in data set [3] and in data set [4] were 9.1 nM and 6.1 nM, respectively. In addition, the EC50 in data set [5] was determined as 62 nM. Besides, the “Inhibition of LPS induced IL-6 production in Mice, % inhibition at 30 mg/kg” value in data set [8] (30 mg/kg oral) worked out at 69% at 30 mg/kg.
